Assay results published in ChEMBL document CHEMBL4033703, “Novel delta opioid receptor agonists with oxazatricyclodecane structure showing potent agonistic activities” (Bioorg Med Chem Lett, 2017).

Assays:
Mus musculus = species on record: Mus musculus; experiment: Selectivity ratio of Ki for mu opioid receptor in mouse whole brain without cerebellum to Ki for delta opioid receptor in mouse whole brain without cerebellum
Mu-type opioid receptor [1] = target: Mu-type opioid receptor (Mus musculus, UniProt P42866); experiment: Displacement of [3H]DAMGO from mu opioid receptor in mouse whole brain without cerebellum membrane
Mu-type opioid receptor (Mus musculus, UniProt P42866), sequence (P42866 whole entry): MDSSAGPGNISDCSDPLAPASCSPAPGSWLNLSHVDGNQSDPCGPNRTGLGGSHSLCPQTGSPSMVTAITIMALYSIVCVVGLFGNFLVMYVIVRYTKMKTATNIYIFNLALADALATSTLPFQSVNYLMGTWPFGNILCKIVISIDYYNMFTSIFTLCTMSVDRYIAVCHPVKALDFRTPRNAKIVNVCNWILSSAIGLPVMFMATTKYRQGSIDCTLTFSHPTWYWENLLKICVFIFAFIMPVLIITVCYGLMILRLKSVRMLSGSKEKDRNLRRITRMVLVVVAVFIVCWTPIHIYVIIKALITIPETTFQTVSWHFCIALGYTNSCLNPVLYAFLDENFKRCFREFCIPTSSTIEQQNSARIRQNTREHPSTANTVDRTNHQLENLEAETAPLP

[2] = target: T1, Delta-type opioid receptor (Homo sapiens, UniProt P41143); experiment: Agonist activity at human delta opioid receptor expressed in CHO cells assessed as inhibition of forskolin-induced cAMP accumulation after 30 mins by Eu-cAMP tracer based TR-FRET assay; assay type: functional, cell-based
T1 sequence (P41143 whole entry): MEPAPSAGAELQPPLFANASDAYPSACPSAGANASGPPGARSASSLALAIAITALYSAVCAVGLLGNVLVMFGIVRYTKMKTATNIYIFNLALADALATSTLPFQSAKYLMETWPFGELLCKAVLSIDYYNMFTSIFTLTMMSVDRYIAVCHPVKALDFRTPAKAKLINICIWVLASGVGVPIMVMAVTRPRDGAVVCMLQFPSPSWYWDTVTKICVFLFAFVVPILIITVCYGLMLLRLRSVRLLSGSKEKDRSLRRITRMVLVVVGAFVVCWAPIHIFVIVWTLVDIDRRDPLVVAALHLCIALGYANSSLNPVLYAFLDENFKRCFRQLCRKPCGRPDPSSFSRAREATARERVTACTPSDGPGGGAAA

[3] = target: Delta-type opioid receptor (Mus musculus, UniProt P32300); experiment: Displacement of [3H]DPDPE from delta opioid receptor in mouse whole brain without cerebellum membrane
Delta-type opioid receptor (Mus musculus, UniProt P32300), sequence (P32300 whole entry): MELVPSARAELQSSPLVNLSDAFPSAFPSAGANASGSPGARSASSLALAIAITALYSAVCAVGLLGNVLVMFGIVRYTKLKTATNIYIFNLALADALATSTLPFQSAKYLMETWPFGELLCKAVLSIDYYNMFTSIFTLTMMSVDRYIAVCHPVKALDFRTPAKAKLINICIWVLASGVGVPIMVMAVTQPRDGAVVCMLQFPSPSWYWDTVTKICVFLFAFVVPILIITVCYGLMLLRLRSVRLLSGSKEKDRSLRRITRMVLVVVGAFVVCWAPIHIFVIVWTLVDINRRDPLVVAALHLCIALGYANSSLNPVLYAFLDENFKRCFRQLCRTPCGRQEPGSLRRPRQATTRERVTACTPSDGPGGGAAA

Mu-type opioid receptor [4] = target: T2, Mu-type opioid receptor (Homo sapiens, UniProt P35372); experiment: Agonist activity at human mu opioid receptor expressed in CHO cells assessed as inhibition of forskolin-induced cAMP accumulation after 30 mins by Eu-cAMP tracer based TR-FRET assay; assay type: functional, cell-based
T2 sequence (P35372 whole entry): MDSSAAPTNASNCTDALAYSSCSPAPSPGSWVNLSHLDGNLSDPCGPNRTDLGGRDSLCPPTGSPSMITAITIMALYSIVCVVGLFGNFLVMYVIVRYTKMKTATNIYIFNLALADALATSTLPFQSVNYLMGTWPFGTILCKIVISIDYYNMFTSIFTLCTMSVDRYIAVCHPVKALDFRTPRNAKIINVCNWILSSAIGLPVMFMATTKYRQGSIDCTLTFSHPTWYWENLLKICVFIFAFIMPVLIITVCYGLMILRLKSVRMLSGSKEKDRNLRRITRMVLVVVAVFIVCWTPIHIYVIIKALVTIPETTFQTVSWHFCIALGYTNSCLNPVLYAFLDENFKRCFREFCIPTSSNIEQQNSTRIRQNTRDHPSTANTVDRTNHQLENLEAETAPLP

[5] = target: T3, Kappa-type opioid receptor (Homo sapiens, UniProt P41145); experiment: Agonist activity at human kappa opioid receptor expressed in CHO cells assessed as inhibition of forskolin-induced cAMP accumulation after 30 mins by Eu-cAMP tracer based TR-FRET assay; assay type: functional, cell-based
T3 sequence (P41145 whole entry): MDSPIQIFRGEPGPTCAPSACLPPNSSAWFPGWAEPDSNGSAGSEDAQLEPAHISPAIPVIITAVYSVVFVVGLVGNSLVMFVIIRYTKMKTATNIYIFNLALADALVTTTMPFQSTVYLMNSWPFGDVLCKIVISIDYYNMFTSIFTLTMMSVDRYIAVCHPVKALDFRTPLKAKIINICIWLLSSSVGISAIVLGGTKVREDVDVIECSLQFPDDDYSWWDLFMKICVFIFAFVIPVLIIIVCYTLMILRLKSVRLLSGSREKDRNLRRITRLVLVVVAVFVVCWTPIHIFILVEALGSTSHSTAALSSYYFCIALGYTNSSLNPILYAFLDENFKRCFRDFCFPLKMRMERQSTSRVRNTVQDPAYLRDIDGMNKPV

[6] = target: T1, Delta-type opioid receptor; experiment: Agonist activity at human delta opioid receptor expressed in CHO cells assessed as inhibition of forskolin-induced cAMP accumulation after 30 mins by Eu-cAMP tracer based TR-FRET assay relative to SNC80; assay type: functional, cell-based
[7] = target: Kappa-type opioid receptor (Cavia porcellus, UniProt P41144); experiment: Displacement of [3H]U-69,593 from kappa opioid receptor in guinea pig cerebellum membrane; assay type: cell membranes
Kappa-type opioid receptor (Cavia porcellus, UniProt P41144), sequence (P41144 whole entry): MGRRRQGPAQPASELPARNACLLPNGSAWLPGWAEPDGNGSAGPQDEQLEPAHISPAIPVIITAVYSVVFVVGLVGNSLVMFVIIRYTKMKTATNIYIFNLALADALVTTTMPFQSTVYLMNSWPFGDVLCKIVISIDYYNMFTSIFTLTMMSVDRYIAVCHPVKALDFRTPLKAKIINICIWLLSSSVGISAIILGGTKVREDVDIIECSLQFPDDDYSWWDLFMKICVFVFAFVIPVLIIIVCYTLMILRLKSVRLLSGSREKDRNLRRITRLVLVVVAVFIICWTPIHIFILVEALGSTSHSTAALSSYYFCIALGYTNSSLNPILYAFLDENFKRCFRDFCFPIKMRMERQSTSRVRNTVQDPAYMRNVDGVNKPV

[8] = Selectivity ratio of Ki for kappa opioid receptor in guinea pig cerebellum membrane to Ki for delta opioid receptor in mouse whole brain without cerebellum; assay type: cell membranes
Mu-type opioid receptor [9] = target: T2, Mu-type opioid receptor; experiment: Agonist activity at human mu opioid receptor expressed in CHO cells assessed as inhibition of forskolin-induced cAMP accumulation after 30 mins by Eu-cAMP tracer based TR-FRET assay relative to DAMGO; assay type: functional, cell-based
[10] = target: T3, Kappa-type opioid receptor; experiment: Agonist activity at human kappa opioid receptor expressed in CHO cells assessed as inhibition of forskolin-induced cAMP accumulation after 30 mins by Eu-cAMP tracer based TR-FRET assay relative to U-69,593; assay type: functional, cell-based
[11] = target: T3, Kappa-type opioid receptor; experiment: Displacement of [3H]U-69,593 from human kappa opioid receptor expressed in CHO cells; assay type: cell-based
[12] = target: T1, Delta-type opioid receptor; experiment: Displacement of [3H]DPDPE from human delta opioid receptor expressed in CHO cells; assay type: cell-based
Mu-type opioid receptor [13] = target: T2, Mu-type opioid receptor; experiment: Agonist activity at human mu opioid receptor expressed in CHO cells assessed as inhibition of forskolin-induced cAMP accumulation at 10 uM after 30 mins by Eu-cAMP tracer based TR-FRET assay relative to DAMGO; assay type: functional, cell-based
Mu-type opioid receptor [14] = target: T2, Mu-type opioid receptor; experiment: Displacement of [3H]DAMGO from human mu opioid receptor expressed in CHO cells; assay type: cell-based
[15] = target: T3, Kappa-type opioid receptor; experiment: Agonist activity at human kappa opioid receptor expressed in CHO cells assessed as inhibition of forskolin-induced cAMP accumulation at 10 uM after 30 mins by Eu-cAMP tracer based TR-FRET assay relative to U-69,593; assay type: functional, cell-based

With CN1CCC23c4cc(O)ccc4CC1C21CCC2C3[C@@H](CN2C(=O)c2ccccc2)O1 (some centres not stated) the Ratio Ki (Mus musculus) was 1.3, the Ki (Mu-type opioid receptor [1]) was 0.383 nM and the EC50 [2] was 0.43 nM. For the same compound, the Ki [3] was 0.301 nM, the EC50 (Mu-type opioid receptor [4]) was 5.9 nM and the EC50 [5] was 50 nM. It also gave an Emax [6] of 94%, a Ki [7] of 31.3 nM and a Ratio Ki [8] of 104. It also gave an Emax (Mu-type opioid receptor [9]) of 103% and an Emax [10] of 96%.
With Oc1ccc2c(c1)C13CCN(CC4CC4)C(C2)C12CCC1C3[C@@H](CN1Cc1ccccc1)O2 (some centres not stated) the Ki [11] was 1.38 nM, the Ki [12] was 0.501 nM and the EC50 [2] was 0.67 nM. For the same compound, the Emax (Mu-type opioid receptor [13]) was 4.2%, the Emax [6] was 79% and the Ki (Mu-type opioid receptor [14]) was 1.56 nM. It also gave an Emax [15] of 12%.
O=S(=O)(c1ccccc1)N1C[C@H]2OC34CCC1C2C31CCN(CC2CC2)C4Cc2ccc(O)cc21 (some centres not stated) showed a Ki [11] of 0.658 nM, a Ki [12] of 0.221 nM and an EC50 [2] of 1.2 nM. For the same compound, the EC50 (Mu-type opioid receptor [4]) was 2.5 nM, the Emax [6] was 66% and the Ki (Mu-type opioid receptor [14]) was 0.308 nM. It also gave an Emax (Mu-type opioid receptor [9]) of 54% and an Emax [15] of 19%.
With COCCCN1CCC23c4cc(O)ccc4CC1C21CCC2C3[C@@H](CN2C(=O)c2ccccc2)O1 (some centres not stated) the Ratio Ki (Mus musculus) was 11, the Ki (Mu-type opioid receptor [1]) was 3.94 nM and the EC50 [2] was 1.4 nM. It also gave a Ki [3] of 0.368 nM, an EC50 (Mu-type opioid receptor [4]) of 22 nM and an Emax [6] of 120%. It also gave a Ki [7] of 20.3 nM, a Ratio Ki [8] of 55 and an Emax (Mu-type opioid receptor [9]) of 55%. The Emax [15] was 23%.
O=C(c1ccccc1)N1C[C@H]2OC34CCC1C2C31CCN(CCc2ccccc2)C4Cc2ccc(O)cc21 (some centres not stated) gave a Ratio Ki (Mus musculus) of 1.2, a Ki (Mu-type opioid receptor [1]) of 0.548 nM and an EC50 [2] of 0.61 nM. The Ki [3] was 0.458 nM, the EC50 (Mu-type opioid receptor [4]) was 5.3 nM and the EC50 [5] was 404 nM. It also gave an Emax [6] of 100%, a Ki [7] of 34.1 nM and a Ratio Ki [8] of 74. For the same compound, the Emax (Mu-type opioid receptor [9]) was 109% and the Emax [10] was 56%.
In the case of C=CCN1CCC23c4cc(O)ccc4CC1C21CCC2C3[C@@H](CN2C(=O)c2ccccc2)O1 (some centres not stated), the Ratio Ki (Mus musculus) is reported as 7.6, the Ki (Mu-type opioid receptor [1]) is reported as 0.833 nM and the EC50 [2] is reported as 0.43 nM. For the same compound, the Emax (Mu-type opioid receptor [13]) was 2.2%, the Ki [3] was 0.109 nM and the Emax [6] was 73%. It also gave a Ki [7] of 2.54 nM, a Ratio Ki [8] of 23 and an Emax [15] of 4.2%.
CC(C)CN1CCC23c4cc(O)ccc4CC1C21CCC2C3[C@@H](CN2C(=O)c2ccccc2)O1 (some centres not stated) showed a Ratio Ki (Mus musculus) of 5.9, a Ki (Mu-type opioid receptor [1]) of 4.48 nM and an EC50 [2] of 3 nM. It also gave an Emax (Mu-type opioid receptor [13]) of 15%, a Ki [3] of 0.76 nM and an EC50 [5] of 98 nM. The Emax [6] was 99%, the Ki [7] was 6.25 nM and the Ratio Ki [8] was 8.2. The Emax [10] was 19%.
COCCCN1CC[C@]23Cc4nc5ccccc5cc4C[C@@]2(O)[C@H]1Cc1ccc(O)cc13 showed an ED50 [2] of 0.46 nM, an Emax (Mu-type opioid receptor [13]) of 25% and an Emax [6] of 95%. The Emax [15] was 14%.
For O=C(c1ccccc1)N1C[C@H]2OC34CCC1C2C31CCN(CC2CC2)C4Cc2ccc(O)cc21 (some centres not stated), the Ratio Ki (Mus musculus) was 1.2, the Ki (Mu-type opioid receptor [1]) was 0.325 nM and the Ki [11] was 1.05 nM. It also gave a Ki [12] of 0.154 nM, an EC50 [2] of 0.54 nM and an Emax (Mu-type opioid receptor [13]) of 3.9%. For the same compound, the Ki [3] was 0.274 nM, the Emax [6] was 96% and the Ki [7] was 1.21 nM. The Ki (Mu-type opioid receptor [14]) was 0.627 nM, the Ratio Ki [8] was 4.4 and the Emax [15] was 2.9%.
